This is an account of results in patent publication US8629164B2, “Inhibitors of NF-κB” (Profectus Biosciences, Inc., priority 2009, dated 2014).

For assay [1], the target named is T1, p50 (Homo sapiens, UniProt P19838).
T1 sequence (P19838 1-433 limits assumed): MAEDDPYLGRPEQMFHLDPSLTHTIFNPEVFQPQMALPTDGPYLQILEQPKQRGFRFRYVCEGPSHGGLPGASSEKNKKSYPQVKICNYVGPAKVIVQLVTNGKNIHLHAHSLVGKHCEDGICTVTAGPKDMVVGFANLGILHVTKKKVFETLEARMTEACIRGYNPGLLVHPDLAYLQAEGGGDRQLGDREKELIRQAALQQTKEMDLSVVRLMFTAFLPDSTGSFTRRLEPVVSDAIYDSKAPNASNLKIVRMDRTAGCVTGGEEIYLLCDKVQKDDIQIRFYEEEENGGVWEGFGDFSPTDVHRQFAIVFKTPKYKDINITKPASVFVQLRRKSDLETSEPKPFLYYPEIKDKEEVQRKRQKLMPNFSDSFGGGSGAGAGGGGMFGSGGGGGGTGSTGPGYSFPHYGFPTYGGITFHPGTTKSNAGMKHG
The experiment in a line: TransAM NF-κB Family DNA Binding ELISA, p50. Conditions: for inhibition at 5 µM: read-out: p50 binding % inhibit. at 5 uM; for IC50: p50 binding IC50 (uM), cells without % sign. In general terms: An ELISA detects its analyte on a solid surface through an enzyme-linked reagent.

Assay [2] has as its target T2, c-Rel (Homo sapiens, UniProt Q04864).
T2 sequence (Q04864 2-619 limits assumed): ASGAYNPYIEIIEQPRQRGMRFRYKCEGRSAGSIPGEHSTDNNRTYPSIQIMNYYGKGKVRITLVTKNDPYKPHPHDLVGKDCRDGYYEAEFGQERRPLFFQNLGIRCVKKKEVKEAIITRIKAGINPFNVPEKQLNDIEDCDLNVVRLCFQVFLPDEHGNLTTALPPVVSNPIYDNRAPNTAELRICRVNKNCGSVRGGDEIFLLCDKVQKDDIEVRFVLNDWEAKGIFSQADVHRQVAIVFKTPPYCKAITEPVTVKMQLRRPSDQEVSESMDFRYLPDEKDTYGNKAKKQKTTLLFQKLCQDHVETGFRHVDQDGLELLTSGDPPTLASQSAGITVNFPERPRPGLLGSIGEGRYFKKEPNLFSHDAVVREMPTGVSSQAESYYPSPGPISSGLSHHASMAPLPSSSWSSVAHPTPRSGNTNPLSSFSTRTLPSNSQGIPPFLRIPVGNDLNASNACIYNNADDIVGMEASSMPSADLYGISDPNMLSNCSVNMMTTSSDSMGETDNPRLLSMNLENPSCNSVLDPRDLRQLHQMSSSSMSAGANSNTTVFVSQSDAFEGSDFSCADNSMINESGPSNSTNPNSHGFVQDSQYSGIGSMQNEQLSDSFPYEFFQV
The experiment in a line: TransAM NF-κB Family DNA Binding ELISA, c-Rel. As to conditions: for inhibition at 5 µM: read-out: c-Rel binding % inhibit. at 5 uM, at 5 uM; for IC50: c-Rel binding IC50 (uM), cells without % sign.
Method: (§2) Treated samples were then transferred to 30 μL Complete Binding Buffer (with DTT) in microplate wells pre-coated with the NF-κB consensus oligonucleotide. […] The plate was incubated for 1 hour at room temperature with gentle shaking and then washed 3 times with 200 μL 1× Wash Buffer. NF-κB p65, p50, p52, RelB, or c-Rel subunits bound to the plate were detected with 100 μL of the primary antibody (diluted 1:1000 in 1× Antibody Buffer) specific for that subunit. The plate was incubated for 1 hour at room temperature and then washed 3 times with 200 μL 1× Wash Buffer. Next, 100 μL of a HRP conjugated goat anti-rabbit antibody (diluted 1:1,000 in 1× Antibody Buffer) was added to each well. The plate was incubated for 1 hour at room temperature and then washed 4 times with 200 μL 1× Wash Buffer. 100 μL of room temperature Developing Solution was added to each well. The reaction was allowed to develop for 2-10 minutes until a medium dark blue color developed (depending on the subunit activity in the lot of extract or lot of recombinant protein used) and then the reaction was stopped with 100 μL Stop Solution yielding a yellow color. Absorbance was recorded using a Becton-Dickinson DTX 880 Multimode Detector at 450 nm with a reference wavelength subtracted at 620 nm.

Assay [3] concerns IL-6 release from RAW264.7 cells. The experiment in a line: IL-6 release from LPS stimulated RAW264.7 cells. It counts as cell-based, mouse. The procedure: Specifically, A and B show the effects of the compound of Example 1 on soluble PGE2 and Il-6 secretion from RAW264.7 cells stimulated by 1 μg/mL of LPS. The cells were treated with the indicated concentrations of the compound of Example 1 for 2 hours, and then LPS was added and incubation continued for 4 hours. […]

Assay [4] has as its target T3, p52 (Homo sapiens, UniProt Q00653).
T3 sequence (Q00653 1-454 limits assumed): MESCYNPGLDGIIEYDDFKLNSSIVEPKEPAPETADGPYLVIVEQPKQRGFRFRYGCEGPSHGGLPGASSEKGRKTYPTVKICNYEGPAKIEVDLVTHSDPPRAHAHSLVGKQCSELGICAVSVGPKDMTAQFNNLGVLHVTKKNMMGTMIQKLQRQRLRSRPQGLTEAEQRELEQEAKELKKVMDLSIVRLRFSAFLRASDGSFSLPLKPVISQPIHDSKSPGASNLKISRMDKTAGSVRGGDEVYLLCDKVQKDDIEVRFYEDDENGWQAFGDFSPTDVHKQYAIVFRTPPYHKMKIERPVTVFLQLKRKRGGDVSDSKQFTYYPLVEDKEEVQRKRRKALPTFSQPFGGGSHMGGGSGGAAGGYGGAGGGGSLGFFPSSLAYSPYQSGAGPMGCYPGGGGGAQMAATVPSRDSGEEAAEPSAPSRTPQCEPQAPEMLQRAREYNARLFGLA
The experiment in a line: TransAM NF-κB Family DNA Binding ELISA, p52. Conditions: for inhibition at 5 µM: read-out: p52 binding % inhibit. at 5 uM, at 5 uM; for IC50: p52 binding IC50 (uM), cells without % sign.
Method: as §2

Assay [5] has as its target T4, RelB (Homo sapiens, UniProt Q01201).
T4 sequence (Q01201 1-579): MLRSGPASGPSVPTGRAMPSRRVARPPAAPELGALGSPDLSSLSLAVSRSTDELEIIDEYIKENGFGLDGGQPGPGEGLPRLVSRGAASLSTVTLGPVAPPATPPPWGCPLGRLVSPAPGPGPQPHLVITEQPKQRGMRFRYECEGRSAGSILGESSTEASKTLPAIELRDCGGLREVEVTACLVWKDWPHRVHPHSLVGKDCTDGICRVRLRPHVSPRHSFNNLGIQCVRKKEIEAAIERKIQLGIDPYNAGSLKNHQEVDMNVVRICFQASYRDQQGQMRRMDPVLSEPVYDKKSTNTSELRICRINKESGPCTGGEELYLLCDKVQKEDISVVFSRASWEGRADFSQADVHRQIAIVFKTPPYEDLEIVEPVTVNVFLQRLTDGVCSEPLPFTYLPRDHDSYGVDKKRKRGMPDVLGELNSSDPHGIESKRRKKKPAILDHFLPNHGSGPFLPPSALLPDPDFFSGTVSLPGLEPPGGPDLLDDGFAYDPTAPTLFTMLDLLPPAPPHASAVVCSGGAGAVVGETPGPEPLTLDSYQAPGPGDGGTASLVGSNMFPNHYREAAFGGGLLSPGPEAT
T4 sequence (Q00653 1-454 partner limits assumed): T3 sequence (Q00653 1-454 limits assumed)
The experiment in a line: TransAM NF-κB Family DNA Binding ELISA, RelB. As to conditions: for inhibition at 5 µM: read-out: RelB binding % inhibit. at 5 uM, at 5 uM; for IC50: RelB binding IC50 (uM), cells without % sign.

The subject of assay [6] is PGE2 release from RAW264.7 cells. The experiment in a line: PGE2 release from LPS stimulated RAW264.7 cells. Conditions: Mus musculus, RAW264.7, RAW 264.7 cells. It counts as cell-based, mouse. The procedure: Specifically, A and B show the effects of the compound of Example 1 on soluble PGE2 and Il-6 secretion from RAW264.7 cells stimulated by 1 μg/mL of LPS. The cells were treated with the indicated concentrations of the compound of Example 1 for 2 hours, and then LPS was added and incubation continued for 4 hours.
LPS stimulation induces the expression of COX-2 the enzyme responsible for prostaglandin E2.

For assay [7], the system named is NF-κB. The experiment in a line: 293-cell pNF-κB-luc reporter assay, TNF-α induced. Conditions: HEK293 cells, NF-κB driven luciferase expression; read-out: 293/NFkB-luc EC50. It counts as cell-based. On the procedure: (§1) Inhibition of NF-κB in cells by the compound of Example 1. Two reporter cell assays were used to determine the ability of the compound of Example 1 to inhibit NE-KB driven transcription. The first assay was a 293-cell based assay with a stably integrated pNF-κB-luc reporter plasmid containing 3 NF-κB promoter elements. The second assay was a 293-cell based assay with a stably integrated pTRH1-NF-κB-dscGFP reporter containing 4 NF-κB promoter elements. Cells were treated with 0, 0.2, 1, 10, 20 and 40 μM of the compound of Example 1 for 2 hours then were induced with 20 ng/ml TNF-α for 18 hours. Following the induction, luminescence or fluorescence was quantified using a Beckman-Coulter 2300 plate reader. […] These values represent the median value generated from three independent experiments±the standard error. As a control, 0.5% DMSO treated and untreated cells were compared to verify that the Example 1 carrier had no effect on the expression of luciferase or in the readout of the assay. There was a slight decrease in the output from the assay in the DMSO treated population although it was not statistically significant. As a result of the controls, the decrease in activity in the drug treated samples was compared to the DMSO control sample.
A general note: A reporter such as luciferase makes a cellular process visible.

For assay [8], the system named is NF-κB. The experiment in a line: 293-cell pTRH1-NF-κB-dscGFP reporter assay, TNF-α induced. As to conditions: Homo sapiens, HEK293, HEK293 cells, NF-κB driven GFP expression; read-out: NF-kB/293/GFP EC50. It counts as cell-based. The procedure: as §1
Assay [9] concerns the target p65 (RelA) (Homo sapiens, UniProt Q04206). The experiment in a line: TransAM NF-κB Family DNA Binding ELISA, p65. Conditions: p65 binding IC50 (uM), binding to NF-κB sites.
The mark [10] stands for this setting: Mus musculus, RAW264.7, RAW 264.7 cells.

SMILES strings stand for the structures.

Chain of p65 (RelA) (Q04206 whole entry): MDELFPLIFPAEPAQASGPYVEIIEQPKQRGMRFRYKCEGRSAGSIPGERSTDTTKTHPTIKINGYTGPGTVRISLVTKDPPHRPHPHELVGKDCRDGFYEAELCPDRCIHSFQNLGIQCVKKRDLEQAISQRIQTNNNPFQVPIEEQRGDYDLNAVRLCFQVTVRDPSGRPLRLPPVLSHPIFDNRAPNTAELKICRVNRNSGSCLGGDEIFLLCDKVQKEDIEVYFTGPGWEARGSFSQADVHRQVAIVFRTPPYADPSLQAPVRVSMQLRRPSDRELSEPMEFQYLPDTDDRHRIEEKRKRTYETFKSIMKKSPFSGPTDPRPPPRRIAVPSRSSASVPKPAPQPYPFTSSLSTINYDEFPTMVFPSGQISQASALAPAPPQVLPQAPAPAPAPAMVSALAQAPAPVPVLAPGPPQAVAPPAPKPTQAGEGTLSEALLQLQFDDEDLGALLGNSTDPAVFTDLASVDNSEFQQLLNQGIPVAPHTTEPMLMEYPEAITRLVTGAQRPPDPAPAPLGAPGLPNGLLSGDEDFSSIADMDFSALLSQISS

As for `O=C(NC1=CC(=O)C2OC2C1O)c1cnc(-c2ccccc2)nc1O` (racemic) [Example 8, (±)-4-hydroxy-2-phenylpyrimidine-5-carboxylic acid (2-hydroxy-5-oxo-7-oxa-bicyclo[4.1.0]hept-3-en-3-yl)-amide], the inhibition at 5 µM in assay [1] was found to be 16%; in assay [2], 46%; in [4] it was 17%; in assay [5] it was 21%. Also, the EC50 turned out to be 2.2 µM in assay [3] (setting [10]), 26.2 µM in [6], 37 µM in assay [7] and 10 µM in assay [8].
Consider `O=C(NC1=CC(=O)C2OC2C1O)c1nc2ccccc2cc1O` (racemic) [Example 15, (±)-3-hydroxy-quinoline-2-carboxylic acid-(2-hydroxy-5-oxo-7-oxa-bicyclo[4.1.0]hept-3-en-3-yl)-amide], for which the inhibition at 5 µM came to 0% in assay [1], 6% in assay [2], 0% in assay [4] and 0% in assay [5]. For the same molecule, the EC50 came to 1 µM in assay [3] (setting [10]), 11 µM in assay [7] and 4.9 µM in assay [8]. For the same molecule, the IC50 in [9] stood at 488 µM.
Consider `COc1ncccc1C(=O)NC1=CC(=O)C2OC2C1O` (racemic) [Example 16, (±)-N-(2-hydroxy-5-oxo-7-oxa-bicyclo[4.1.0]hept-3-en-3-yl)-2-methoxy-nicotinamide], for which the IC50 in [1] is 20 µM; in assay [2] it was 0.8 µM; in assay [4], 3.7 µM; in assay [5] it was 1.7 µM; in assay [9] it was 0.88 µM. Moreover, the EC50 in [3] (setting [10]) worked out at 0.64 µM; in assay [7] it was 7.1 µM; in assay [8], 1.2 µM.
`COc1cccnc1C(=O)NC1=CC(=O)C2OC2C1O` (racemic) [Example 20, (±)-3-methoxy-pyridine-2-carboxylic acid (2-hydroxy-5-oxo-7-oxa-bicyclo[4.1.0]hept-3-en-3-yl)-amide]: the inhibition at 5 µM was 1% in assay [1], 40% in assay [2], 18% in assay [4] and 29% in [5]. Also, the EC50 turned out to be 1.4 µM in [3] (RAW 264.7 cells), 9.6 µM in assay [7] and 7.7 µM in assay [8]. For the same molecule, in [9], the IC50 turned out to be 5.8 µM.
As to `COc1nc2ccccc2cc1C(=O)NC1=CC(=O)C2OC2C1O` (racemic) [Example 25, (±)-2-methoxy-quinoline-3-carboxylic acid (2-hydroxy-5-oxo-7-oxa-bicyclo[4.1.0]hept-3-en-3-yl)-amide], the IC50 in [1] was 1.2 µM; in [2] it was 0.49 µM; in assay [4], 4.7 µM; in assay [5] it was 0.65 µM; in assay [9], 1.1 µM. The EC50 is 0.13 µM in [3] (setting [10]), 4.1 µM in assay [7] and 0.84 µM in assay [8].
Turning to `COc1nccnc1C(=O)NC1=CC(=O)C2OC2C1O` (racemic) [Example 26, (±)-3-methoxy-pyrazine-2-carboxylic acid (2-hydroxy-5-oxo-7-oxa-bicyclo[4.1.0]hept-3-en-3-yl)-amide], the IC50 in [1] stood at 246 µM; in assay [2], 14 µM; in assay [4] it was 84 µM; in assay [5] it was 12 µM; in assay [9], 4.7 µM. Further, the values for the EC50 in assay [3] (setting [10]), in assay [7] and in assay [8] were 1.6 µM, 16 µM and 11 µM, respectively.
As for `O=C(NC1=CC(=O)C2OC2C1=O)c1cc2ccccc2nc1O` (racemic) [Example 28, (±)-N-(2,5-dioxo-7-oxabicyclo[4.1.0]hept-3-en-3-yl)-2-hydroxyquinoline-3-carboxamide], the IC50 was found to be 20 µM in [1]; 4.5 µM in assay [2]; 9.6 µM in assay [4]; 3 µM in assay [5]; 3 µM in assay [9]. Further, the EC50 came out at 0.19 µM in assay [3] (setting [10]), 2.7 µM in [7] and 4.2 µM in [8].
`COc1c(C(=O)NC2=CC(=O)C3OC3C2O)ccc2cccnc12` (racemic) [Example 29, (±)-N-(2-hydroxy-5-oxo-7-oxabicyclo[4.1.0]hept-3-en-3-yl)-8-methoxyquinoline-7-carboxamide]: the IC50 in assay [1] was 129 µM; in [2] it was 11 µM; in assay [4] it was 59 µM; in assay [5], 12 µM; in [9], 4.5 µM. Further, the EC50 in [3] (setting [10]) is 0.16 µM; in assay [7], 0.46 µM; in assay [8], 2.2 µM.

As a reminder, the IC50 is the concentration that inhibits the measured activity by half. Higher therefore signals weaker potency.
